Measurements reported in paper PMC8541628, “Development of Novel Quinoline-Based Sulfonamides as Selective Cancer-Associated Carbonic Anhydrase Isoform IX Inhibitors” (International Journal of Molecular Sciences, 2021).

How the values were obtained:
active caspase-3 [1] = test: active caspase-3 level (ELISA) in MCF-7 cells; assay type: cell-based, human; conditions: 24 h incubation
Method: (§1) The levels of two members of Bcl-2 family proteins, the anti-apoptotic Bcl-2 protein, and the counteracting pro-apoptotic Bax protein, as well as the level of active caspase-3 (a key executioner protease) in MDA-MB-231 and MCF-7 cells have been assessed after incubation with QBS 11c and 13b for 24 h.
(§2) All adopted procedures for the conducted in vitro biological assays were performed as described earlier; CA (stopped-flow), cytotoxicity (MTT [37, 38]), and assessment of apoptotic markers assays, as well as induction of hypoxia with cobalt chloride, and were mentioned in the Supporting Materials. […]
monolay er. Cell monolay ers were treated in quadrates with vehicle (DMSO, 0.1% v/v), test samples or Adriamycin as positive control for an exposure time of 72 h. At the end of exposure, MTT solution in PBS (5 mg/ml) was then added to all well including no cell blank and left to incubate for 90 min. The formation of formazan crystals were visually confirmed using phase contract microscopy. DMSO (100 µl/well) was added to dissolve the formazan crystals with shaking for 10 min after which the absorbance was read at 590 nm against no cell blanks on a FLuo Star Optima microplate reader (BMG technologies, Germany). Cell proliferation was calculated comparing the OD values of the DMSO control wells and those of the samples represented as % proliferation to the control. Dose-response experiment was performed on samples producing > or =50% loss of cell proliferation using five serial 2-fold dilutions (50, 25, 12.5, 6.25 and 3.125 µM) of the sample. IC50 values (concentration of sample causing 50% loss of cell proliferation of the vehicle control) were calculated using non-linear regression curve fitting of the dose response plots on GraphPad Prism V.6.0 software.
(§3) 3. Assessment of Apo ptotic Markers Levels
The levels of the pro-apoptotic markers (Bax and active caspase-3) as well as the anti-apoptotic marker Bcl-2 were determined using ELISA kits; Human Bax ELISA Kit (EIA-4487) DRG® Instruments, Bcl-2 ELISA Kit (99–0042), Zymed® Laboratories, Invitrogen Immunodetection, and Human Caspase-3 (active) ELISA Kit (KHO1091) Invitrogen®, per the manufacturer’s instructions. Breast cancer MDA-MB-231 and MCF-7 cells were cultured as a monolayer in T-25 flasks and were seeded to attain 30% confluency prior to treatment. Cells were then treated separately with MBFS 11b at its IC50 concentration for 24 h. […]
captured protein, forming a “sandwich” of specific antibodies around the desired protein in the cell lysate. […] The HRP domain reacted with the added TMB substrate to form a colored product that measured at 450 nm by a plate reader ChroMate-4300 after the reaction was terminated via the addition of stop solution. […]

Bax = Bax expression level (ELISA) in MDA-MB-231 cells; assay type: cell-based, human; conditions: 24 h incubation
Method: as §1, §2, §3
(§4) The levels of the pro-apoptotic markers (Bax and active caspase-3) as well as the anti-apoptotic marker Bcl-2 were determined using ELISA kits; Human Bax ELISA Kit (EIA-4487) DRG® Instruments, Bcl-2 ELISA Kit (99–0042), Zymed® Laboratories, Invitrogen Immunodetection, and Human Caspase-3 (active) ELISA Kit (KHO1091) Invitrogen®, per the manufacturer’s instructions. Breast cancer MDA-MB-231 and MCF-7 cells were cultured as a monolayer in T-25 flasks and were seeded to attain 30% confluency prior to treatment. Cells were then treated separately with MBFS 11b at its IC50 concentration for 24 h. At the end of treatment, cells were collected via trypsinization and centrifuged at 10,000 rpm. The pellet was then rinsed with PBS and lysed in RIPA lysis buffer at 4 °C for 45 min, then centrifuged at 14,000 rpm for 20 min to remove the cellular debris. Lysates were then collected and stored at −80 °C for later protein determination using Pierce BCA Protein Assay Kit according to manufacturer’s recommendations.
(§5) The cell lysate was diluted 10 times, and 100 μL ([…]) was added to the wells of […] separate microtiter plates for the three ELISA kits th at were pre-coated with primary antibodies specific to Bax, Bcl-2, and caspase-3 proteins, respectively. A secondary biotin-linked antibody specific to the protein captured by the primary antibody was further added to bind the […]
(§6) captured protein, forming a “sandwich” of specific antibodies around the desired protein in the cell lysate. The streptavidin-HRP complex was then used to bind the biotin-linked secondary antibody through its streptavidin portion. The HRP domain reacted with the added TMB substrate to form a colored product that measured at 450 nm by a plate reader ChroMate-4300 after the reaction was terminated via the addition of stop solution. […]
(§7) The ligand 3D structures were prepared by Maestro and their ionization states was checked with Epik at pH 7.4±0.5 then they were subjected to energy minimization using OPLS3 force field in Macromodel with a maximum number of 2500 conjugate gradient iteration and a convergence of 0.05 kcal mol−1 A−1. […]

MDA-MB-231 = test: 72 h MTT anti-proliferative assay under hypoxic conditions, MDA-MB-231; assay type: cell-based; conditions: Homo sapiens, mean ± S.D. of three experiments
Excerpt: 1. Carbonic anhydrase inhibition assay
The enzymes are recombinant proteins prepared in our lab.
parameters and inhibition constants.
2. Anti-proliferative action toward human breast cell lines

hCA I = hCA I (Homo sapiens, UniProt P00915); test: stopped flow carbon dioxide hydrase assay, hCA I
Sequence of hCA I (P00915 whole entry): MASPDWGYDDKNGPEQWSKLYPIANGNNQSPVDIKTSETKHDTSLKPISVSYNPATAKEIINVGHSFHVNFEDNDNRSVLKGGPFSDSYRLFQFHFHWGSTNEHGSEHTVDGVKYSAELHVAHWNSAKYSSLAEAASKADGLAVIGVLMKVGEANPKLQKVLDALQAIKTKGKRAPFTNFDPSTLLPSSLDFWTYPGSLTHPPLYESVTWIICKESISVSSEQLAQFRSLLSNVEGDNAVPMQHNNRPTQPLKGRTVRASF

active caspase-3 [2] = test: active caspase-3 level (ELISA) in MDA-MB-231 cells; assay type: cell-based, human; conditions: 24 h incubation
Method: as §1, §2, §3, §4, §5, §6, §7

IC50 (MDA-MB-231)	Ki (hCA I)	Compound	Active Caspase-3 (active caspase-3 [1])	Active Caspase-3, folds of control (active caspase-3 [1])	BAX (Bax)	BAX, folds of control (Bax)	Active Caspase-3 (active caspase-3 [2])	Active Caspase-3, folds of control (active caspase-3 [2])
2240 ± 100 nM	92.1 nM	COc1ccc2nccc(Nc3ccc(S(N)(=O)=O)cc3)c2c1 [13b, 4-((6-methoxyquinolin-4-yl)amino)benzenesulfonamide]	14.82 ± 0.43 Pg/mg of Total Protein	3.02 folds of control	373.5 ± 10.4 Pg/mg of Total Protein	6.3 folds of control	9.32 ± 0.73 Pg/mg of Total Protein	3.62 folds of control
1030 ± 50 nM	442 nM	NS(=O)(=O)c1cccc(Nc2ccnc3ccc(Cl)cc23)c1 [11c, 3-((6-chloroquinolin-4-yl)amino)benzenesulfonamide]	17.83 ± 0.62 Pg/mg of Total Protein	3.64 folds of control	420.9 ± 8.24 Pg/mg of Total Protein	7.1 folds of control	12.69 ± 1.14 Pg/mg of Total Protein	4.93 folds of control
